PubChem BioAssay AID264 (DTP/NCI, 2004)
“And” between values parts separate entries of the source, which are not always exact repeats. Identical values can stand only once. Inconclusive results are not listed. Numbered stars: 1 amine (or outer) side, 2 acyl side, 3 side chain; on linkers, the order of the positions; unused ones are H or OH. Bridge positions count the residues as written; N and C are the ends. Square brackets hold non-standard residues; d marks the D form. Peptide text beside a SMILES is read from it. I, II: the chains in the order shown. Actinocin(9to1) = Cc1c2oc3c(C)ccc(C(=O)[*:1])c3nc-2c(C(=O)[*:2])c(N)c1=O; aThr = C[C@H](O)[C@H](N)C(=O)O; NMeV = CN[C@H](C(=O)O)C(C)C; Sar = CNCC(=O)O

System: nude mice, LX-1 lung xenograft intrarenal, tumor weight T/C
Assay: NCI In Vivo Anticancer Drug Screen. Data for tumor model Human Lung LX-1 Xenograft (intrarenal inoculation) in NU/NU Swiss (nude) mice
Conditions: endpoint: mean tumor weight change, higher = larger tumour
Method in brief: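 Tumor-bearing mice receive test compound or vehicle; tumor size is then measured in each group. The treated value is divided by the vehicle value to give T/C.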

[1] = dose: 0.25 mg/kg/injection, schedule: Q01DX010 (sc), vehicle: saline
[2] = dose: 75.0 mg/kg/injection, schedule: Q04DX003 (sc), vehicle: saline with Tween-80
[3] = dose: 150.0 mg/kg/injection, schedule: Q04DX003 (sc), vehicle: saline with Tween-80
[4] = dose: 300.0 mg/kg/injection, schedule: Q04DX003 (sc), vehicle: saline with Tween-80
[5] = dose: 600.0 mg/kg/injection, schedule: Q04DX003 (sc), vehicle: saline with Tween-80
[6] = dose: 1200.0 mg/kg/injection, schedule: Q04DX003 (sc), vehicle: saline with Tween-80
[7] = dose: 300.0 mg/kg/injection, schedule: Q04DX003 (sc), vehicle: Klucel (hydroxypropylcellulose) (HPC)
[8] = dose: 600.0 mg/kg/injection, schedule: Q04DX003 (sc), vehicle: Klucel (hydroxypropylcellulose) (HPC)
[9] = dose: 1200.0 mg/kg/injection, schedule: Q04DX003 (sc), vehicle: Klucel (hydroxypropylcellulose) (HPC)

`CO[C@H](C(=O)[C@@H](O)[C@@H](C)O)[C@@H]1Cc2cc3cc(OC4CC(OC5CC(O)C(O)C(C)O5)C(O)C(C)O4)c(C)c(O)c3c(O)c2C(=O)[C@H]1OC1CC(OC2CC(OC3CC(C)(O)C(O)C(C)O3)C(O)C(C)O2)C(O)C(C)O1` (some centres not stated) was tested, and the T/C [1] was 120 % of control, the T/C (dose: 0.25 mg/kg/injection, schedule: Q04DX003 (sc), vehicle: saline) was 76 % of control and the T/C (dose: 0.5 mg/kg/injection, schedule: Q04DX003 (sc), vehicle: saline) was 87 % of control. For the same molecule, the T/C (dose: 0.75 mg/kg/injection, schedule: Q04DX003 (sc), vehicle: saline) was 101 % of control, the T/C (dose: 1.0 mg/kg/injection, schedule: Q04DX003 (sc), vehicle: saline) was 96 % of control and the T/C (dose: 1.5 mg/kg/injection, schedule: Q04DX003 (sc), vehicle: saline) was 78 % of control. The T/C (dose: 2.0 mg/kg/injection, schedule: Q01DX010 (sc), vehicle: saline) was -51 % of control, the T/C (dose: 2.0 mg/kg/injection, schedule: Q04DX003 (sc), vehicle: saline) was 20 % of control and the T/C (dose: 3.0 mg/kg/injection, schedule: Q04DX003 (sc), vehicle: saline) was 40 % of control.
With `C=C1N(C)c2ccccc2C1(C)C` the T/C (dose: 50.0 mg/kg/injection, schedule: Q04DX003 (sc), vehicle: saline with Tween-80) was 80 % of control and the T/C (dose: 100.0 mg/kg/injection, schedule: Q04DX003 (sc), vehicle: saline with Tween-80) was 76 % of control.
For `COc1ccc(Cl)[n+]([O-])n1`, the T/C (dose: 25.0 mg/kg/injection, schedule: Q04DX003 (sc), vehicle: Klucel (hydroxypropylcellulose) (HPC)) was 83 % of control, the T/C (dose: 50.0 mg/kg/injection, schedule: Q04DX003 (sc), vehicle: Klucel (hydroxypropylcellulose) (HPC)) was 60 % of control and the T/C (dose: 100.0 mg/kg/injection, schedule: Q04DX003 (sc), vehicle: Klucel (hydroxypropylcellulose) (HPC)) was 80 % of control.
`CC(C)CCCCCCCCCCCCC(=O)NCC(=O)NC1C(O)C(O)C(Nc2ncnc3nc[nH]c23)OC1C(O)CO` (configuration not stated) was tested, and the T/C (dose: 0.4 mg/kg/injection, schedule: Q01DX010 (sc), vehicle: saline) was 84 % of control, the T/C (dose: 0.8 mg/kg/injection, schedule: Q01DX010 (sc), vehicle: saline) was 62 % of control and the T/C (dose: 1.6 mg/kg/injection, schedule: Q01DX010 (sc), vehicle: saline) was 48 % of control.
`O=S1(=O)C=C(c2ccccc2)C(c2ccccc2)=C1` was tested, and the T/C [2] was 59 % of control, the T/C [3] was 81 % of control and the T/C [4] was 59 % of control. For the same molecule, the T/C [5] was 71 % of control.
For `CCC1=C[C@H]2CN(CCc3c([nH]c4ccccc34)[C@@](C(=O)OC)(c3cc4c(cc3OC)N(C)[C@H]3[C@@](O)(C(=O)OC)[C@H](OC(C)=O)[C@]5(CC)C=CCN6CC[C@]43[C@@H]65)C2)C1`, the T/C (dose: 6.0 mg/kg/injection, schedule: Q04DX003 (sc), vehicle: water) was 106 % of control and the T/C (dose: 12.0 mg/kg/injection, schedule: Q04DX003 (sc), vehicle: water) was 89 % of control.
With `COc1cc([C@@H]2c3cc4c(c(O)c3C[C@H]3COC(=O)[C@@H]32)OCO4)cc(OC)c1O` the T/C (dose: 0.06 mg/kg/injection, schedule: Q01DX010 (sc), vehicle: saline) was 97 % of control, the T/C (dose: 0.12 mg/kg/injection, schedule: Q01DX010 (sc), vehicle: saline) was 91 % of control and the T/C [1] was 74 % of control. For the same molecule, the T/C (dose: 0.5 mg/kg/injection, schedule: Q01DX010 (sc), vehicle: saline) was 205 % of control and the T/C (dose: 1.0 mg/kg/injection, schedule: Q01DX010 (sc), vehicle: saline) was 76 % of control.
With `CCCCCCCCCCCCCC#CC(=O)O` the T/C [2] was 89 % of control, the T/C [3] was 112 % of control and the T/C [4] was 105 % of control.
`C[C@]12CC[C@H](O)CC1=CC[C@@H]1[C@@H]2CC[C@]2(C)C(=O)CC[C@@H]12` was tested, and the T/C [3] was 116 % of control, the T/C [4] was 115 % of control and the T/C [6] was 107 % of control.
For `O.O.[NH-]C1CCCCC1[NH-].[Pt+2]` (configuration not stated), the T/C (dose: 5.0 mg/kg/injection, schedule: Q01DX010 (sc), vehicle: dextrose) was 68 % of control, the T/C (dose: 10.0 mg/kg/injection, schedule: Q01DX010 (sc), vehicle: dextrose) was 74 % of control and the T/C (dose: 20.0 mg/kg/injection, schedule: Q01DX010 (sc), vehicle: dextrose) was 57 % of control.
With `CCCCCCCCSC1=C(Cl)C(=O)C(OC)=C(OC)C1=O` the T/C (dose: 18.0 mg/kg/injection, schedule: Q04DX003 (sc), vehicle: saline with Tween-80) was 82 % of control, the T/C (dose: 36.0 mg/kg/injection, schedule: Q04DX003 (sc), vehicle: saline with Tween-80) was 81 % of control and the T/C (dose: 144.0 mg/kg/injection, schedule: Q04DX003 (sc), vehicle: saline with Tween-80) was 57 % of control.
With `Cc1c2oc3c(C)ccc(C(=O)N[C@@H]4C(=O)N[C@H](C(C)C)C(=O)N5CCC[C@H]5C(=O)N(C)CC(=O)N(C)[C@@H](C(C)C)C(=O)O[C@H]4C)c3nc-2c(C(=O)N[C@@H]2C(=O)N[C@H](C(C)C)C(=O)N3CCC[C@H]3C(=O)N(C)CC(=O)N(C)[C@@H](C(C)C)C(=O)O[C@H]2C)c(N)c1=O` (I: [aThr][dV]P[Sar][NMeV] / II: [aThr][dV]P[Sar][NMeV]; ester I:1-I:C, II:1-II:C; linker I:N-II:N via Actinocin(9to1)) the T/C (dose: 100.0 micrograms/kg/injection, schedule: Q01DX010 (sc), vehicle: saline) was 13 % of control and 24 % of control and the T/C (dose: 200.0 micrograms/kg/injection, schedule: Q01DX010 (sc), vehicle: saline) was 13 % of control.
With `COC(=O)C(F)C(Br)C(=O)OC` (configuration not stated) the T/C (dose: 18.75 mg/kg/injection, schedule: Q04DX003 (sc), vehicle: saline with Tween-80) was 91 % of control, the T/C (dose: 37.5 mg/kg/injection, schedule: Q04DX003 (sc), vehicle: saline with Tween-80) was 111 % of control and the T/C [2] was 90 % of control.
With `C#C[C@]1(O)CC[C@H]2[C@@H]3CCc4cc(O)ccc4[C@H]3CC[C@@]21C` the T/C [7] was 70 % of control, the T/C [8] was 102 % of control and the T/C [9] was 50 % of control. The T/C (dose: 2400.0 mg/kg/injection, schedule: Q04DX003 (sc), vehicle: Klucel (hydroxypropylcellulose) (HPC)) was 55 % of control.
For `CC1OC(=O)C(C(C)C)NC(=O)C(C(C)C)OC(=O)C(C(C)C)NC(=O)C(C)OC(=O)C(C(C)C)NC(=O)C(C(C)C)OC(=O)C(C(C)C)NC(=O)C(C)OC(=O)C(C(C)C)NC(=O)C(C(C)C)OC(=O)C(C(C)C)NC1=O` (configuration not stated), the T/C (dose: 5.0 mg/kg/injection, schedule: Q01DX010 (ip), vehicle: saline with Tween-80) was 44 % of control, the T/C (dose: 5.0 mg/kg/injection, schedule: Q01DX010 (sc), vehicle: saline with Tween-80) was 107 % of control and the T/C (dose: 10.0 mg/kg/injection, schedule: Q01DX010 (ip), vehicle: saline with Tween-80) was 28 % of control. For the same molecule, the T/C (dose: 16.66 mg/kg/injection, schedule: Q04DX003 (ip), vehicle: saline with Tween-80) was 56 % of control, the T/C (dose: 16.66 mg/kg/injection, schedule: Q04DX003 (sc), vehicle: saline with Tween-80) was 179 % of control and the T/C (dose: 33.33 mg/kg/injection, schedule: Q04DX003 (sc), vehicle: saline with Tween-80) was 94 % of control. For the same molecule, the T/C (dose: 66.65 mg/kg/injection, schedule: Q04DX003 (ip), vehicle: saline with Tween-80) was 37 % of control and the T/C (dose: 66.65 mg/kg/injection, schedule: Q04DX003 (sc), vehicle: saline with Tween-80) was 119 % of control.
For `O=C(Nc1cccc(Cl)c1)ON1C(=O)C2C(C1=O)C1(Cl)C(Cl)C(Cl)C2(Cl)C1(Cl)Cl` (configuration not stated), the T/C [4] was 81 % of control, the T/C [5] was 85 % of control and the T/C [6] was 83 % of control.
`CC(=O)NC(C=O)OCC=O` (configuration not stated) was tested, and the T/C (dose: 100.0 mg/kg/injection, schedule: Q04DX003 (sc), vehicle: water) was 116 % of control, the T/C (dose: 200.0 mg/kg/injection, schedule: Q04DX003 (sc), vehicle: water) was 112 % of control and the T/C (dose: 400.0 mg/kg/injection, schedule: Q04DX003 (sc), vehicle: water) was 121 % of control.
In the case of `c1ccc([C@H]2CN3CCSC3=N2)cc1`, the T/C (dose: 30.0 mg/kg/injection, schedule: Q04DX003 (sc), vehicle: saline) is reported as 103 % of control and the T/C (dose: 60.0 mg/kg/injection, schedule: Q04DX003 (sc), vehicle: saline) is reported as 121 % of control.
With `COC(=O)C(Cl)(Cl)N=Nc1c(Cl)cc(Cl)c(C)c1Cl` the T/C [3] was 210 % of control, the T/C [4] was 196 % of control and the T/C [5] was 237 % of control. For the same molecule, the T/C [6] was 209 % of control.
`COc1cc(O)c2c(O)c3c(c4c2c1[C@]1(C4)C(C)=CCCC1(C)C)[C@H](O)[C@@]1(O)CC(=O)C(C(N)=O)=C(O)[C@@]1(O)C3=O` was tested, and the T/C [4] was 55 % of control, the T/C [5] was 58 % of control and the T/C [6] was 42 % of control.
With `CN=C(NC#N)NCCSCc1nc[nH]c1C` the T/C [7] was 81 % of control, the T/C [8] was 66 % of control and the T/C [9] was 73 % of control.
For `COc1cccc2c1C(=O)c1c(O)c3c(c(O)c1C2=O)CC(O)(/C(C)=N/NC(=O)CCC(=O)N/N=C(\C)C1(O)Cc2c(O)c4c(c(O)c2C(OC2CC(N)C(O)C(C)O2)C1)C(=O)c1c(OC)cccc1C4=O)CC3OC1CC(N)C(O)C(C)O1` (configuration not stated), the T/C (dose: 6.25 mg/kg/injection, schedule: Q01DX010 (sc), vehicle: water) was 21 % of control (2×) and 27 % of control and the T/C (dose: 12.5 mg/kg/injection, schedule: Q01DX010 (sc), vehicle: water) was 31 % of control and 46 % of control and 51 % of control.
